US10028956B2, “Methods of treating various cancers using an AXL/cMET inhibitor in combination with other agents” (Ignyta, Inc., priority 2013, dated 2018)

How the values were obtained:
AXL = target: T1, AXL (Homo sapiens, UniProt P30530); assay: Dissociation from AXL, LanthaScreen Eu-kinase binding assay
T1 sequence (P30530 26-894): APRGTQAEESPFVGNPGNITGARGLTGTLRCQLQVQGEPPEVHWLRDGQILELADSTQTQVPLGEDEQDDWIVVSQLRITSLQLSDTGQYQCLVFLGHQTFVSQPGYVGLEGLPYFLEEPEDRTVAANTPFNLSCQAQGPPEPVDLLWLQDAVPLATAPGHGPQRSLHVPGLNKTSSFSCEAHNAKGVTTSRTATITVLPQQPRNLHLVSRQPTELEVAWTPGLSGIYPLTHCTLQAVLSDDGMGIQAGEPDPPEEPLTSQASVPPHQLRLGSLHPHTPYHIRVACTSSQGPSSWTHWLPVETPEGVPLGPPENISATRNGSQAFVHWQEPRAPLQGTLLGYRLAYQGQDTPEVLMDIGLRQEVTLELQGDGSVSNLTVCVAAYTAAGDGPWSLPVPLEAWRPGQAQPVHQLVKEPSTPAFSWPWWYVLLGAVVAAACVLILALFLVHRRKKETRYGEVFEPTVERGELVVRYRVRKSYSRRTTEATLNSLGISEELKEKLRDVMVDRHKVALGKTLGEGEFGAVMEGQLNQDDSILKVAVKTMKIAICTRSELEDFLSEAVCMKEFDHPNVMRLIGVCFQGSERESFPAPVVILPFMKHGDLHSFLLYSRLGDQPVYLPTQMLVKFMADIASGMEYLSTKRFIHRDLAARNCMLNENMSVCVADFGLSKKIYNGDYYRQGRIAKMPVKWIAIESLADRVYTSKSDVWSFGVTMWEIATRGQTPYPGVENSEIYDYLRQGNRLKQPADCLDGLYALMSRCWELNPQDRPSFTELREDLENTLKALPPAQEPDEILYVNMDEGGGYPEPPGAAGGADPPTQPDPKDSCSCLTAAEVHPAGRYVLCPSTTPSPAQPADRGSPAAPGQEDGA
Procedure: Assay buffer was prepared as for association, and used for all dilutions. A 5-μL aliquot of 80 nM LanthaScreen Eu-anti-GST antibody:20 nM GST-tagged enzyme mix was added to the Greiner low volume white 384-well plate, with antibody only added to control wells. Compound (100 nL) in DMSO was added by pintool at 2000-fold over the final assay concentration. DMSO was added to no inhibitor control wells. After a one-hour incubation at ambient temperature to allow formation of the enzyme-inhibitor complex, 2 μL of the reaction mix was transferred to a 384 Optiplate (PerkinElmer) and 78 μL of kinase tracer 236 was added. The final tracer concentration was 100 nM for AXL and 200 nM for c-Met. Readings were immediately initiated and total of 60 time points were taken at 2-min intervals, at 25° C. or 37° C. The background subtracted ratio was normalized to the no inhibitor control to calculate the % tracer bound, which was plotted with respect to time. The data was fitted to the one phase association model in GraphPad Prism (La Jolla Calif.).

[1] = tested on: EBC-1 Human NSCLC xenografts; assay: Anti-tumor efficacy in EBC-1 NSCLC xenografts; type: in vivo, mice
Text: The human NSCL cancer cell line, EBC-1 was purchased from ATCC (American Tissue Culture Collection, Manassas, Va.) and cultured in DMEM medium with 10% fetal bovine serum (FBS, Cat# SH3007003, Hyclone Laboratory Inc, Logan, Utah). Female Nu/Nu mice (6-8 weeks, Charles River Laboratory, Wilmington, Mass.) were maintained 5/cage in microisolator units on a standard laboratory diet (Teklad Labchow, Harlan Teklad, Madison, Wis.). Animals were housed under humidity- and temperature-controlled conditions and the light/dark cycle was set at 12-hour intervals. Mice were quarantined at least 1 week prior to experimental manipulation. […] The mice were then monitored daily. […] The length (L) and width (W) of each tumor was measured with a vernier caliper and the mouse body weight was determined every 2-3 days. The tumor volumes were then calculated with the formula of 0.5236*L*W*(L+W)/2. […] Plasma and tumor samples were obtained at 2 hours post final dose at each dose level, and the compound levels in plasma and tumor lysates were measured by LC-MS/MS. The TGI values were calculated at the end of study by comparing the tumor volumes (TV) of each CEP-40783-treatment group with those of vehicle-treated group with the following formula: 1-(the last day TV of compound-treated group/the last day TV of vehicle-treated group).

What does the source list for COc1cc2nccc(Oc3ccc(NC(=O)c4cn(C(C)C)c(=O)n(-c5ccc(F)cc5)c4=O)cc3F)c2cc1OC [CEP-40783, 3-(4-Fluorophenyl)-1-isopropyl-2,4-dioxo-1,2,3,4-tetrahydropyrimidine-5-carboxylic acid [4-(6,7-dimethoxyquinolin-4-yloxy)-3-fluorophenyl]-amide]?
off-rate from AXL (AXL; 25° C.): very slow; dissociation rate from AXL at higher temperature (AXL; 37° C. versus 25° C.): slightly enhanced; anti-tumor efficacy (tumor volume) ([1]; 3 mg/kg oral qd): tumor stasis and partial regressions; anti-tumor efficacy (tumor volume) ([1]; 10 mg/kg and 30 mg/kg oral qd): tumor regressions
